Test results reported in patent US11076593B2, “Reperfusion with omega-3 glycerides promotes donor organ protection for transplantation” (The Trustees of Columbia University in the City of New York, priority 2013, dated 2021).

Key:
[1] = test system: isolated C57BL/6 mouse hearts; assay: Ex vivo I/R: release of injury markers (LDH, creatine kinase) into the perfusate
From the text: Evidence supporting the methods and products of the invention has been established in an ex vivo model using hearts rapidly removed from ketamine/xylazine anesthetized 12-14 weeks old C57BL/6 mice weighing between 25-30 g that were retrograde perfused in a non-recirculating mode, using an isovolumic perfusion system through the well-known Langendorf System (FIG. 1). In this system isolated mouse hearts were initially perfused with a perfusion buffer containing KREB's solution containing (in mM) the following: 118 NaCl, 4.7 KCl, 2.5 CaCl2, 1.2 MgCl2, 25 NaHCO3, 5 Glucose, 0.4 Palmitate, 0.4 BSA, and 70 mU/1 insulin. […]
After the induced ischemia, control hearts were reperfused using the same Kreb's buffer. […] TG fatty acid (FA) composition (by weight) of the emulsion used in experiments 1-9 was determined by gas liquid chromatography and was as follows for the n-3 emulsion: C14:0, 5.4%; C16:0, 14.8%; C16:1, 8.4%; C18:0, 2.8%; C18:1, 12.7%; C18:2 (n-6), 2.6%; C18:3 (n-3), 0.8%; C20:1, 1.2%; C20:4 (n-6), 1.9%; C20:5 (EPA, n-3), 18.3%; C22:1, 0.2%; C22:4, 0.6%; C22:5, 2.6%; and C22:6 ([…], n-3), 27.7. […]
Myocardial injury was assessed by measuring the release of lactate dehydrogenase (LDH) from the effluent in the ex vivo I/R system and from blood samples in the in vivo LAD system, using the commercially available enzymatic kits (Pointe Scientific, INC, MI USA) as published earlier.^1,2 […]

[2] = test system: p10 C57BL/6J neonatal mice, cerebral H/I; assay: Unilateral cerebral hypoxia-ischemia (H/I) in neonatal mice, TTC infarct volume at 24 hr; format: in vivo, mouse; details: pre-H/I protocol, two i.p. doses; 24 hr reperfusion
From the text: Three-day-old C57BL/6J neonatal mice of both genders were purchased from Jackson Laboratories (Bar Harbor, Me.) with their birth mother. The Rice-Vannucci model of H/I was used and modified to p10 neonatal mice.^5 Briefly, on postnatal day 10 H/I was induced by the ligation of the right common carotid artery, which was further cauterized and cut under isoflurane anesthesia. The investigator was blinded to the lipid emulsion treatment during the surgery and after the surgery. The entire surgical procedure was completed within 5 min for each mouse. Pups were then allowed to recover with their dams for 1.5 hr. Surrounding temperature during experiments was kept at 28° C. Mice were then exposed to systemic hypoxia for 15 min in a hypoxic chamber in a neonatal isolette (humidified 8% oxygen/nitrogen, Tech Air Inc., White Plains, N.Y.).^5 The ambient temperature inside the chamber during hypoxia was stabilized at 37±0.3° C. […]
After 24 hr of reperfusion, the animals were sacrificed by decapitation and brains were immediately harvested. […] Using Adobe Photoshop and NIH Image J imaging applications, planar areas of infarction on serial sections were summed to obtain the volume (mm^3) of infarcted tissue, which was divided by the total (infarcted+non-infarcted) volume of the hemisphere ipsilateral to carotid artery ligation, and expressed as a percentage of total volume. […]

| Compound | LDH release compared to I/R control hearts ([1]; SB-216763 (3 μM) plus 0.3% n-3 TG emulsion) | LDH release (fold change) compared to I/R control ([1]; inhibitor alone, from baseline through ischemia and reperfusion, 10 μM LY-294002, 3 μM SB216763) | infarct volume compared to saline control [2] |
| --- | --- | --- | --- |
| Cn1cc(C2=C(c3ccc(Cl)cc3Cl)C(=O)NC2=O)c2ccccc21 [SB216763] | significantly inhibited LDH release | significantly inhibited LDH release |  |
| Cc1c(C)c2c(c(C)c1O)CC[C@@](C)(CCC[C@H](C)CCC[C@H](C)CCCC(C)C)O2 [alpha-tocopherol] |  |  | no significant difference |
